Assay [1] concerns the target recombinant human AMPK complex 7 (containing α2β1γ1) (Homo sapiens, UniProt P54646+Q9Y478). Nature of the assay: in vitro AMPK activation assay (AMPKSAMSF). Format: biochemical. The note with it: for pEC50: inflection point reflecting 50% of the maximum activation, human AMPK Complex 7; for Emax: recombinant human AMPK complex 7 (α2β1γ1), 10-point titration expressed as % maximum AMP activation. The protocol:
The recombinant human AMPK complex 1 (containing α1β1γ1) or AMPK complex 7 (containing α2β1γ1) was obtained from baculovirus expression system. Recombinant viruses were generated by cotransfection of AMPK/pBacPak9 clones with Baculogold baculovirus DNA (Pharmingen) in spodoptera frugiperda 21 cells according to the manufacturer's instructions. Each round of virus amplification was performed for 5 days in Grace's medium containing 10% serum. Virus that had been subjected to three rounds of amplification was used for all protein production procedures. To express the AMPK complex, sf21 cells were adapted to serum free medium (SF900 II, Invitrogen) by sequential dilution from serum containing stocks into SF900II medium and maintained in shaker flasks at 90 rpm at 27° C. The recombinant AMPK enzyme complex was produced by triple infection, one recombinant virus for each of the subunits, in sf21 cells under serum free conditions. Cells were infected in log phase, 1×10^6 cells/ml, at a multiplicity of infection of ˜5. Cells were harvested by centrifugation at 10,000×g for 15 minutes after 72 hours of infection with viruses. The insect cell pellet from 2 liters of culture was resuspended in 50 ml lysis buffer (20 mM Tris-HCl, 50 mM NaCl, 50 mM NaF, 30 mM Na PPi, 0.25 M sucrose, 10 mM ZnCl2, 2 mM DTT, 0.4 mg/ml digitonin) and subjected to two cycles of freeze-thaw lysis in a dry-ice ethanol bath. Insoluble material was removed by centrifugation at 10,000×g and the supernatant was fractionated with use of polyethylene glycol (PEG). The protein fraction precipitating between 2.5 and 6% PEG was used for further purification using a Blue-Sepharose step (Zhou et al, J. Clin. Invest. 108, 1167-1174, 2001).
The in vitro AMPK activation assay is performed in a volume of 30 μl in a 384-well plate. Enzyme reactions were assembled in the microtiter plate by adding 15 μl of 2× enzyme in assay buffer (20 mM HEPES, pH 7.3, 5 mM MgCl2, 3 mM DTT, 0.01% Brij 35 and CamK Kinase, to activate AMPK) to wells which contained either DMSO or compound. The reaction was initiated with the addition of 15 μl 2× substrate mixture containing 200 μM ATP, and 3.0 μM fluorescently labeled SAMS (5-FAM-HMRSAMSGLHLVKRR-COOH) in assay buffer. After 45-minute incubation at 25° C., the reaction was stopped by the addition of 70 μl stop buffer (100 mM HEPES, pH 7.3, 40 mM EDTA, 0.015% Brij 35). Phosphorylated 5-FAM SAMS product is assessed using a Caliper EZ Reader LabChip microfluidics reader. Product conversion is determined by calculating the peak heights of the substrate and product and reporting the product/(product+substrate) peak ratio. The 10-point titration data were expressed as % maximum AMP activation. The results were plotted using 4 parameter fit and the inflection point reflecting 50% of the maximum activation was reported as the EC50.

Assay [2] concerns ob/ob and db/db mice. The note with it: following 8 weeks of administration; cited from earlier work.

Among the data in patent US9868733B2, “Azabenzimidazole tetrahydrofuran derivatives” (Merck Sharp & Dohme Corp., priority 2012, dated 2018) are EC50, Emax and blood glucose reduction values, retold here.

pEC50: −log10 of the molar value.

A word on the pEC50: it is the EC50 on a negative log10 scale, so that one unit is a factor of ten. The term Emax denotes the maximal effect, on the per cent scale that the assay sets.

recombinant human AMPK complex 7 (containing α2β1γ1), sequence (P54646 whole entry): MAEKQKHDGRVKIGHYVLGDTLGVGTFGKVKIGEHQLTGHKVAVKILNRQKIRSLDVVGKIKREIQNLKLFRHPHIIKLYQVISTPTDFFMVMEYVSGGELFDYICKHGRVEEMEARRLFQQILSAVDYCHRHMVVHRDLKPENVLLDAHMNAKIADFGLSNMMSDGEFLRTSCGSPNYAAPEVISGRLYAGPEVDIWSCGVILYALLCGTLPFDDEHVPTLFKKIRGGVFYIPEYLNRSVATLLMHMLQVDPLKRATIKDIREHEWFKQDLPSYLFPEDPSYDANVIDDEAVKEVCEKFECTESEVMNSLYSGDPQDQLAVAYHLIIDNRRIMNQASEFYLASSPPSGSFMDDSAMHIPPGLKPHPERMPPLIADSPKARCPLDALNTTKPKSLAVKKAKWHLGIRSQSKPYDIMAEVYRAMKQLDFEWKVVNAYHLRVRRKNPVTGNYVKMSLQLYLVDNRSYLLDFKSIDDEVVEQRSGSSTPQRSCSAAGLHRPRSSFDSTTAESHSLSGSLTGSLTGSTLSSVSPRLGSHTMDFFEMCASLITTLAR
recombinant human AMPK complex 7 (containing α2β1γ1), sequence (Q9Y478 whole entry): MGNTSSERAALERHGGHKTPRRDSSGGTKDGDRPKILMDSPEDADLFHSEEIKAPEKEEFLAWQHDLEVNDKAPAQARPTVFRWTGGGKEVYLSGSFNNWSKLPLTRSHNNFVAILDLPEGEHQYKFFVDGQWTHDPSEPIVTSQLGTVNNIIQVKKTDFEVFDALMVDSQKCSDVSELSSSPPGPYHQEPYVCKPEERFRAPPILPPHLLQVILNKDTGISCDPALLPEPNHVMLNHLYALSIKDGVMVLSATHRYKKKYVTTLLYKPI
recombinant human AMPK complex 7 (containing α2β1γ1), sequence (P54619 whole entry partner): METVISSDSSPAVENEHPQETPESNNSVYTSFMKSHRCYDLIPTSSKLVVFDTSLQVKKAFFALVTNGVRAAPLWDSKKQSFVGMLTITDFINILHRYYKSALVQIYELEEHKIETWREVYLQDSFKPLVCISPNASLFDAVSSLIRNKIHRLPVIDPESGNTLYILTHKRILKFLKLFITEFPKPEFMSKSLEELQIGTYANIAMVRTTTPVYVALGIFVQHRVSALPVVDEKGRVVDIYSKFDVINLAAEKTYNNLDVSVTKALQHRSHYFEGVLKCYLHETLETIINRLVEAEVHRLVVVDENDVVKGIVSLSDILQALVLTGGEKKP

Regarding `OC[C@H]1OC[C@@H](Oc2nc3nc(-c4ccc(-c5ccc(-n6nccn6)cc5)cc4)c(Cl)cc3[nH]2)[C@@H]1O` [Example 4, (2R,3R,4R)-4-[[6-chloro-5-[4-[4-(triazol-2-yl)phenyl]phenyl]-1H-imidazo[4,5-b]pyridin-2-yl]oxy]2-(hydroxymethyl)tetrahydrofuran-3-ol], in assay [1], the pEC50 is 7.70 and the maximal response (Emax) stood at 206%.

For `OC[C@H]1OC[C@@H](Oc2nc3nc(-c4ccc(-c5ccc(-n6cccn6)nc5)cc4)c(Cl)cc3[nH]2)[C@@H]1O` [Example 1, (2R,3R,4R)-4-[[6-chloro-5-[4-(6-pyrazol-1-yl-3-pyridyl)phenyl]-1H-imidazo[4,5-b]pyridin-2-yl]oxy]-2-(hydroxymethyl)tetrahydrofuran-3-ol], in assay [1], the pEC50 was 7.80 and the Emax came to 188%.

`C[C@]1(O)[C@@H](CO)OC[C@H]1Oc1nc2nc(-c3ccc(-c4ccccc4)cc3)c(Cl)cc2[nH]1` [Example 14, (2R,3S,4R)-4-[[6-chloro-5-(4-phenylphenyl)-1H-imidazo[4,5-b]pyridin-2-yl]oxy]-2-(hydroxymethyl)-3-methyl-tetrahydrofuran-3-ol]: in assay [1], the pEC50 is 6.54 and the Emax was found to be 203%.

Take `CC(C)(O)Cn1cc2c(n1)CN(c1ccc(-c3nc4nc(O[C@@H]5CO[C@H](CO)[C@H]5O)[nH]c4cc3Cl)cc1)C2` [Example 8, (2R,3R,4R)-4-[[6-chloro-5-[4-[2-(2-hydroxy-2-methyl-propy)-4,6-dihydropyrrolo[3,4-c]pyrazol-5-yl]phenyl]-1H-imidazo[4,5-b]pyridin-2-yl]oxy]-2-(hydroxymethyl)-tetrahydrofuran-3-ol; 2,2,2-trifluoroacetic acid]: in assay [1], the pEC50 was 8.05 and the Emax worked out at 332%.

On to `OC[C@H]1OC[C@@H](Oc2nc3nc(-c4ccc(-c5ccc(F)cc5F)cc4)c(Cl)cc3[nH]2)[C@@H]1O` [Example 21], for which, in assay [1], the pEC50 is 7.07 and the Emax is 307%.

On to `CC(C)(O)Cc1cnn(-c2ccc(-c3ccc(-c4nc5nc(O[C@@H]6CO[C@H](CO)[C@H]6O)[nH]c5cc4Cl)cc3)cc2)c1` [Example 6], for which, in assay [1], the pEC50 is 8.30 and the Emax was 268%.

As for `OC[C@H]1OC[C@@H](Oc2nc3nc(-c4ccc(-c5ccc(-n6cncn6)cc5)cc4)c(Cl)cc3[nH]2)[C@@H]1O` [Example 5, (2R,3R,4R)-4-[[6-chloro-5-[4-[4-(1,2,4-triazol-1-yl)phenyl]phenyl]-1H-imidazo[4,5-b]pyridin-2-yl]oxy]-2-(hydroxymethyl)tetrahydrofuran-3-ol], in assay [1], the pEC50 was 8.70 and the Emax is 261%.

Take `OC[C@H]1OC[C@@H](Oc2nc3nc(-c4ccc(-c5ccc(F)cc5)cc4)c(Cl)cc3[nH]2)[C@@H]1O` [Example 23]: in assay [1], the pEC50 is 7.42 and the Emax worked out at 231%.

As to `NC(=O)c1ncn([C@@H]2O[C@H](CO)[C@@H](O)[C@H]2O)c1N` [AICAR], the blood glucose reduction in assay [2] is 35%.

On to `N#CCCn1nnnc1-c1ccc(-c2ccc(-c3nc4nc(O[C@@H]5CO[C@H](CO)[C@H]5O)[nH]c4cc3Cl)cc2)cc1` [Example 20], for which, in assay [1], the pEC50 was 8.10 and the Emax stood at 242%.

Turning to `OC[C@H]1OC[C@@H](Oc2nc3nc(-c4ccc(-c5ccc(-n6cccn6)cc5)cc4)c(Cl)cc3[nH]2)[C@@H]1O` [Example 2], in assay [1], the pEC50 is 8.40 and the Emax is 315%.

`OC[C@H]1OC[C@@H](Oc2nc3nc(-c4ccc(Br)cc4)c(Cl)cc3[nH]2)[C@@H]1O` [Example 10, (2R,3R,4R)-4-[[5-(4-bromophenyl)-6-chloro-1H-imidazo[4,5-b]pyridin-2-yl]oxy]-2-(hydroxymethyl)tetrahydrofuran-3-ol]: in assay [1], the pEC50 is 5.44 and the Emax was 209%.

Regarding `OC[C@H]1OC[C@@H](Oc2nc3nc(-c4ccc(-c5ccccc5F)cc4)c(Cl)cc3[nH]2)[C@@H]1O` [Example 18], in assay [1], the pEC50 is 7.49 and the Emax was determined as 294%.

`OC[C@H]1OC[C@@H](Oc2nc3nc(-c4ccc(-c5ccccc5)cc4)c(Cl)cc3[nH]2)[C@@H]1O` [Example 3]: in assay [1], the pEC50 was 7.89 and the Emax amounted to 338%.

For `OC[C@H]1OC[C@@H](Oc2nc3nc(-c4ccc(-c5cccc(F)c5)cc4)c(Cl)cc3[nH]2)[C@@H]1O` [Example 19], in assay [1], the pEC50 is 6.90 and the Emax came out at 231%.

Turning to `OC[C@H]1OC[C@@H](Oc2nc3nc(-c4ccc(-c5ccc(N6CCOCC6)cc5)cc4)c(Cl)cc3[nH]2)[C@@H]1O` [Example 22], in assay [1], the pEC50 is 8.30 and the Emax was 252%.

In the case of `CC(C)(F)Cn1cc2c(n1)CN(c1ccc(-c3nc4nc(O[C@@H]5CO[C@H](CO)[C@H]5O)[nH]c4cc3Cl)cc1)C2` [Example 9, (2R,3R,4R)-4-[[6-chloro-5-[4-[2-(2-fluoro-2-methyl-propyl)-4,6-dihydropyrrolo[3,4-c]pyrazol-5-yl]phenyl]-1H-imidazo[4,5-b]pyridin-2-yl]oxy]-2-(hydroxymethyl)tetrahydrofuran-3-ol], in assay [1], the pEC50 was 7.96 and the Emax amounted to 294%.

Regarding `O=C(O)[C@H]1OC[C@@H](Oc2nc3nc(-c4ccc(-c5ccccc5)cc4)c(Cl)cc3[nH]2)[C@@H]1O` [Example 12, (2S,3S,4R)-4-[[6-chloro-5-(4-phenylphenyl)-1H-imidazo[4,5-b]pyridin-2-yl]oxy]-3-hydroxy-tetrahydrofuran-2-carboxylic acid], in assay [1], the pEC50 was 6.48 and the Emax amounted to 313%.

For `OC[C@H]1OC[C@@H](Oc2nc3nc(-c4ccc(-c5ccc(-n6cnnn6)cc5)cc4)c(Cl)cc3[nH]2)[C@@H]1O` [Example 7, (2R,3R,4R)-4-[[6-chloro-5-[4-[4-(tetrazol-1-yl)phenyl]phenyl]-1H-imidazo[4,5-b]pyridin-2-yl]oxy]-2-(hydroxymethyl)tetrahydrofuran-3-ol], in assay [1], the pEC50 was 8.52 and the Emax was 282%.
